Assay results taken from US11584928B2, “Methods for generating barcoded combinatorial libraries” (The Regents of the University of Colorado, priority 2016, dated 2023).

System: galK
Experiment: galK editing with MAD2 or MAD7 nuclease and various guide nucleic acid scaffolds, white/red screening
Type: cell-based, E. coli
Conditions: guide sequence targeting galK
Excerpt: MAD2 and MAD7 nucleases are nucleic acid-guided nuclease that can be used in the methods disclosed herein. Nucleases Mad2 (SEQ ID NO: 2) and Mad 7 (SEQ ID NO: 7) were cloned and transformed into cells. Editing cassettes designed to mutate a target site in a galK gene were designed with mutations, which allowed for white/red screening of successfully editing colonies. The editing cassettes also encoded a guide nucleic acid designed to target galK. The editing cassettes were transformed into E. coli cells expressing MAD2, MAD7, or Cas9. […] In this example, the guide nucleic acid used with MAD2 and MAD7 comprised a scaffold-12 sequence and a guide sequence targeting galK. The guide nucleic acid used with Cas9 comprised a sequence compatible with the S. pyogenes Cas9.
FIG. 32 and Table 3 show more examples of gene editing using the MAD2 nuclease. In this experiment, different guide nucleic acid sequences were tested. The guide sequence of the guide nucleic acids targeted the galK gene as described above. The scaffold sequence of the guide nucleic acids were one of various sequences tested as indicated.
FIG. 33 and Table 4 show more examples of gene editing using the MAD7 nuclease. In this experiment, different guide nucleic acid sequences were tested. The guide sequence of the guide nucleic acids targeted the galK gene as described above. The scaffold sequence of the guide nucleic acids were one of various sequences tested as indicated. […] Table 3 and Table 4 also provided the designed mutations in the editing cassettes that were used to mutate the galK target gene.

| Substance | formation of functional complexes with MAD2 | formation of functional complexes with MAD7 |
| --- | --- | --- |
| scaffold-5: guide nucleic acid scaffold sequence, SEQ ID NO: 88 (guide CCGTCTAAAACTCATTCAGAATTTCTACTAGTGTAGAT; chemistry not given here) | able to form functional complexes | – |
| scaffold-12: guide nucleic acid scaffold sequence, SEQ ID NO: 95 (guide GTCAAAAGACCTTTTTAATTTCTACTCTTGTAGAT; chemistry not given here) | able to form functional complexes | able to form functional complexes |
| scaffold-11: guide nucleic acid scaffold sequence, SEQ ID NO: 94 (guide GTCTGGCCCCAAATTTTAATTTCTACTGTTGTAGAT; chemistry not given here) | able to form functional complexes | able to form functional complexes |
| scaffold-10: guide nucleic acid scaffold sequence, SEQ ID NO: 93 (guide CTCTACAACTGATAAAGAATTTCTACTTTTGTAGAT; chemistry not given here) | able to form functional complexes | able to form functional complexes |
